Bounds are passed on as bounds.

The nature of this test: Inhibition of recombinant human IL-17A/IL-17AR protein-protein interaction using TMB substrate compound added on IL17A precoated plate and followed by IL-17AR addition by ELISA.
Regarding `CO[C@]1(C)C[C@H](O[C@H]2[C@H](C)[C@@H](O[C@@H]3O[C@H](C)C[C@H](N(C)C)[C@H]3O)[C@](C)(O)C[C@@H](C)CN(C)C(=O)C[C@H](Cc3ccc(NC(=O)[C@H](Cc4ccccc4Cl)NC(=O)Cc4ccccc4)cc3)NC(=O)[C@@H](C(C)C)NC(=O)[C@@H]2C)O[C@@H](C)[C@@H]1O`, the concentration for half-maximal inhibition (IC50) was above 30000 nM. In the case of `CO[C@]1(C)C[C@H](O[C@H]2[C@H](C)[C@@H](O[C@@H]3O[C@H](C)C[C@H](N(C)C)[C@H]3O)[C@](C)(O)C[C@@H](C)CN(C)C(=O)C[C@@H](Cc3ccc(NC(=O)[C@H](Cc4ccccc4Cl)NC(=O)Cc4ccc(S(C)(=O)=O)cc4)cc3)NC(=O)[C@H](C(C)C)NC(=O)[C@@H]2C)O[C@@H](C)[C@@H]1O`, the IC50 was 946 nM. Under `CO[C@]1(C)C[C@H](O[C@H]2[C@H](C)[C@@H](O[C@@H]3O[C@H](C)C[C@H](N(C)C)[C@H]3O)[C@](C)(O)C[C@@H](C)CN(C)C(=O)[C@H](C(C)C)NC(=O)C[C@@H](Cc3ccc(NC(=O)[C@H](Cc4ccccc4Cl)NC(=O)Cc4ccccc4)cc3)NC(=O)[C@@H]2C)O[C@@H](C)[C@@H]1O` stands above 30000 nM; under `CO[C@]1(C)C[C@H](O[C@H]2[C@H](C)[C@@H](O[C@@H]3O[C@H](C)C[C@H](N(C)C)[C@H]3O)[C@](C)(O)C[C@@H](C)CN(C)C(=O)C[C@@H](Cc3ccc(NC(=O)[C@H](Cc4ccccc4Cl)NC(=O)Cc4ccc(F)cc4)cc3)NC(=O)[C@H](C(C)C)NC(=O)[C@@H]2C)O[C@@H](C)[C@@H]1O`, 573 nM; under `CC[C@H](C)[C@@H]1NC(=O)[C@H](C)[C@@H](O[C@H]2C[C@@](C)(OC)[C@@H](O)[C@H](C)O2)[C@H](C)[C@@H](O[C@@H]2O[C@H](C)C[C@H](N(C)C)[C@H]2O)[C@](C)(O)C[C@@H](C)CN(C)C(=O)C[C@@H](Cc2ccc(NC(=O)[C@H](Cc3ccccc3Cl)NC(=O)Cc3ccccc3)cc2)NC1=O`, 2600 nM. Under `CO[C@]1(C)C[C@H](O[C@H]2[C@H](C)[C@@H](O[C@@H]3O[C@H](C)C[C@H](N(C)C)[C@H]3O)[C@](C)(O)C[C@@H](C)CN(C)C(=O)[C@H](Cc3ccc(NC(=O)[C@H](Cc4ccccc4Cl)NC(=O)Cc4ccccc4)cc3)NC(=O)[C@H](C(C)C)NC(=O)[C@@H]2C)O[C@@H](C)[C@@H]1O` stands 15900 nM; under `CO[C@]1(C)C[C@H](O[C@H]2[C@H](C)[C@@H](O[C@@H]3O[C@H](C)C[C@H](N(C)C)[C@H]3O)[C@](C)(O)C[C@@H](C)CN(C)C(=O)[C@H](C(C)C)NC(=O)C[C@H](Cc3ccc(NC(=O)[C@H](Cc4ccccc4Cl)NC(=O)Cc4ccccc4)cc3)NC(=O)[C@@H]2C)O[C@@H](C)[C@@H]1O`, above 30000 nM; under `CO[C@]1(C)C[C@H](O[C@H]2[C@H](C)[C@@H](O[C@@H]3O[C@H](C)C[C@H](N(C)C)[C@H]3O)[C@](C)(O)C[C@@H](C)CN(C)C(=O)C[C@@H](Cc3ccc(NC(=O)[C@H](Cc4ccccc4Cl)NC(=O)Cc4cccc(F)c4)cc3)NC(=O)[C@H](C(C)C)NC(=O)[C@@H]2C)O[C@@H](C)[C@@H]1O`, 80 nM. Under `CO[C@]1(C)C[C@H](O[C@H]2[C@H](C)[C@@H](O[C@@H]3O[C@H](C)C[C@H](N(C)C)[C@H]3O)[C@](C)(O)C[C@@H](C)CN(C)C(=O)C[C@@H](Cc3ccc(NC(=O)[C@H](Cc4ccccc4C)NC(=O)Cc4ccccc4)cc3)NC(=O)[C@H](C(C)C)NC(=O)[C@@H]2C)O[C@@H](C)[C@@H]1O` stands 488 nM; under `CO[C@]1(C)C[C@H](O[C@H]2[C@H](C)[C@@H](O[C@@H]3O[C@H](C)C[C@H](N(C)C)[C@H]3O)[C@](C)(O)C[C@@H](C)CN(C)C(=O)C[C@@H](Cc3ccc(NC(=O)[C@H](Cc4ccccc4Cl)NC(=O)Cc4ccc(C(=O)O)cc4)cc3)NC(=O)[C@H](C(C)C)NC(=O)[C@@H]2C)O[C@@H](C)[C@@H]1O`, above 10000 nM.

In general, IC50 refers to the midpoint of a concentration-inhibition curve.

The record behind these values is ChEMBL document CHEMBL5033997, “Macrolide Inspired Macrocycles as Modulators of the IL-17A/IL-17RA Interaction” (J Med Chem, 2021).
